Data on 53 molecules can be found in the supplement of paper PMC11997997.

Some results are limits rather than exact numbers.

For assay [1], the system named is murine bone marrow-derived macrophages. Kind of assay: area under cytotoxicity dose-response curve (AUC (% cytotoxicity x dose, relative)); higher = more cytotoxic. The note with it: duration: 6 days; dose range: 0.13-80 uM, 8 points. In outline:
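Using opaque 384-well plates, primary murine bone marrow-derived macrophages were treated for 6 days at 37 °C in 5% CO2 with an 8-point, 2.5-fold dilution series spanning final concentrations of 80–0.13 μM. After CellTiter-Glo (Promega) luminescence readout of viability, percent cytotoxicity was normalised to vehicle and positive control wells. The reported value is the area under the dose–response curve for cytotoxicity, derived in GraphPad Prism version 10.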

For assay [2], the system named is Mycobacterium tuberculosis CDC1551 (intracellular, in murine BMDM). Kind of assay: area under intracellular growth-inhibition dose-response curve (AUC (% inhibition x dose, relative)); higher = more potent. The following applies: duration: 6 days; dose range: 0.13-80 uM, 8 points. In outline:
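Primary murine bone marrow-derived macrophages in 384-well opaque plates were infected 24 h after seeding with luciferase-expressing M. tuberculosis CDC1551 at multiplicity of infection 1 for 1 h. They were then treated with an 8-dose, 2.5-fold series (final 80–0.13 μM) for 6 days. Growth was read by Bright-Glo luciferin assay and normalised to a reference drug control and the lowest-concentration wells. The value is the area under the growth-inhibition dose–response curve, calculated in GraphPad Prism.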

For `CCN1/C(=C\c2ccc3ccccc3[n+]2CC)Sc2cc(C)ccc21.[I-]`, the “area under cytotoxicity dose-response curve” value in assay [1] is 175. The “area under intracellular growth-inhibition dose-response curve” value in assay [2] came to 117.
For `CNC(=S)Nc1ccc(-c2nc3ccc(C)cc3s2)cc1` the same measures were 5.79 and 262.
For `Cc1cccc(-c2nsc(SCC(=O)N3CCCC3)n2)c1` the same measures were 98 and 224.
For `O=C(NNC(=O)C1CCCC1)c1cc([N+](=O)[O-])cc([N+](=O)[O-])c1` the same measures were 12.3 and 109.
As for `COc1ccc(CCNC(=O)c2cc(-c3ccccn3)nc3ccccc23)cc1`, the “area under cytotoxicity dose-response curve” value in assay [1] is 17.5. Also, the “area under intracellular growth-inhibition dose-response curve” value in assay [2] worked out at 40.6.
For `Nc1ccc(C(=O)[O-])c(O)c1.O.[Na+]` the same measures were 0.704 and 184.
On to `CNc1nc(SCc2ccc(C)cc2)nc2c1CCCC2`, for which the “area under cytotoxicity dose-response curve” value in assay [1] amounted to 19.6. In assay [2], the “area under intracellular growth-inhibition dose-response curve” value is 274.
On the same counts, the results for `COc1cc(OC)c(/C=N/NC(=O)c2ccncc2)c(OC)c1` are 60.6 and 272.
For `CCCCCCn1c(=O)c(C(=O)Nc2cnccn2)c(O)c2ccccc21` the same measures were below 0 and 56.4.
For `CC1CCN(C(=O)COc2ccccc2F)CC1` the same measures were 50.5 and 214.
Take `CC(C)c1ccc(NC(=O)NC2CCCCC2)cc1`: the “area under cytotoxicity dose-response curve” value in assay [1] came out at 66.5. Besides, the “area under intracellular growth-inhibition dose-response curve” value in assay [2] is 185.
On to `O=C(N/N=C/C=C/c1ccccc1[N+](=O)[O-])c1ccncc1`, for which, in assay [1], the “area under cytotoxicity dose-response curve” value stood at 244. In assay [2], the “area under intracellular growth-inhibition dose-response curve” value amounted to 244.
As for `CCn1cc(C(=O)NCCc2ccccc2)c(=O)c2cc(S(=O)(=O)N3CCCC3)ccc21`, the “area under cytotoxicity dose-response curve” value in assay [1] was 74.8. For the same molecule, in assay [2], the “area under intracellular growth-inhibition dose-response curve” value was 203.
On the same counts, the results for `CCC(=O)NC(=S)Nc1ccc(NC(=O)c2ccc(Br)o2)cc1` are 58.2 and 211.
Regarding `Cc1ccc(C)c(NC(=N)Nc2nc(C)cc(C)n2)c1`, the “area under cytotoxicity dose-response curve” value in assay [1] was below 0. Further, in assay [2], the “area under intracellular growth-inhibition dose-response curve” value turned out to be 218.
For `c1ccc(Cc2nnc(-c3ccccc3)o2)cc1` the same measures were 39.3 and 264.
On the same counts, the results for `COc1cc(C(C)=NNC(=O)c2ccncc2)ccc1O` are 47.1 and 265.
On the same counts, the results for `CCOC(=O)C1=C(COC(=O)c2ccc(OC)c(S(=O)(=O)N3CCOCC3)c2)NC(=O)NC1C` (stereo unspecified) are 65.5 and 56.9.
For `COc1ccccc1OCC(=O)N/N=C/C=C/c1ccc([N+](=O)[O-])o1`, in assay [1], the “area under cytotoxicity dose-response curve” value was below 0. In addition, in assay [2], the “area under intracellular growth-inhibition dose-response curve” value was 73.2.
For `O=[N+]([O-])c1ccc(CN2CCN(c3ccccc3Cl)CC2)o1` the same measures were 63.5 and 123.
As for `O=C(CSc1ccccc1)NNC(=O)c1ccncc1`, the “area under cytotoxicity dose-response curve” value in assay [1] was found to be 18.7. The “area under intracellular growth-inhibition dose-response curve” value in assay [2] was determined as 219.
For `CCN1/C(=C/C(C)=C/c2sc3ccccc3[n+]2CC)Sc2ccccc21.[I-]` the same measures were 94.9 and 138.
For `C/C(Cn1nnc([N+](=O)[O-])n1)=N\NC(=O)c1ccncc1`, the “area under cytotoxicity dose-response curve” value in assay [1] was below 0. Moreover, the “area under intracellular growth-inhibition dose-response curve” value in assay [2] stood at 271.
On the same counts, the results for `COc1ccc(C(=O)Oc2cc(/C=N/NC(N)=S)ccc2OC)cc1` are 53.3 and 211.
On the same counts, the results for `COc1ccc2c(c1)c(CC(=O)OCC(=O)O)c(C)n2C(=O)c1ccc(Cl)cc1` are 47.6 and 117.
`CCCc1nnc(NC(=S)Nc2ccccc2)s1`: the “area under cytotoxicity dose-response curve” value in assay [1] is below 0. The “area under intracellular growth-inhibition dose-response curve” value in assay [2] stood at 213.
On the same counts, the results for `O=C(Sc1cccc2cccnc12)c1ccc(F)cc1` are 125 and 110.
For `CC(=O)c1cc(NC(=O)c2cccc(C(F)(F)F)c2)c(=O)oc1/C=C/N(C)C` the same measures were 64.4 and 194.
For `COC(=O)c1cccc(/C=N/NC(N)=S)c1O` the same measures were 32.1 and 144.
Turning to `O=C(CSc1nc2ccccc2nc1N1CCOCC1)N1CCN(c2ccccc2)CC1`, in assay [1], the “area under cytotoxicity dose-response curve” value came to 22.9. Moreover, the “area under intracellular growth-inhibition dose-response curve” value in assay [2] stood at 199.
As for `Cc1ccc(C2=NCCn3c2c2ccc([N+](=O)[O-])cc2[n+]3[O-])cc1`, the “area under cytotoxicity dose-response curve” value in assay [1] is 96.8. In assay [2], the “area under intracellular growth-inhibition dose-response curve” value amounted to 20.7.
For `Nc1nc(F)nc2c1ncn2[C@@H]1O[C@H](CO)[C@@H](O)[C@H]1O` the same measures were 236 and below 0.
Take `COC(=O)c1sccc1NC(=O)c1c(F)c(F)c(F)c(F)c1F`: the “area under cytotoxicity dose-response curve” value in assay [1] amounted to 12.8. In addition, the “area under intracellular growth-inhibition dose-response curve” value in assay [2] came to 158.
As to `Cc1cc(C)c2cc(C(=O)Nc3ccc(C)c(F)c3)[nH]c2c1`, the “area under cytotoxicity dose-response curve” value in assay [1] is below 0. Moreover, the “area under intracellular growth-inhibition dose-response curve” value in assay [2] was 214.
For `O=C(NCCc1c[nH]c2ccccc12)c1cc([N+](=O)[O-])cc([N+](=O)[O-])c1` the same measures were below 0 and 257.
On the same counts, the results for `O=C(NN=C(Cc1ccccc1)Cc1ccccc1)c1ccncc1` are 7.4 and 257.
On the same counts, the results for `C=C1c2cccc(O)c2C(=O)C2C(=O)[C@]3(O)C(=O)C(C(N)=O)C(=O)[C@@H](N(C)C)[C@@H]3[C@@H](O)[C@H]12.Cl` (stereo partly specified) are 3.53 and 272.
In the case of `Cc1cc(NS(=O)(=O)c2ccc(NC(=S)Nc3ccc(Cl)cc3C)cc2)no1`, the “area under cytotoxicity dose-response curve” value in assay [1] came out at 7.59. Moreover, in assay [2], the “area under intracellular growth-inhibition dose-response curve” value came to 102.
On the same counts, the results for `COCC(=O)Nc1nnc(Cc2ccc(OC)cc2)s1` are 21.6 and 159.
On the same counts, the results for `CCCCn1c(N)c(N(CCOC)C(=O)c2oc3ccc(Br)cc3c2C)c(=O)[nH]c1=O` are 7.25 and 207.
On the same counts, the results for `O=C(CCN1C(=O)S/C(=C/c2ccccc2)C1=O)Nc1ccc(C(=O)O)c(O)c1` are 156 and 117.
With `Cc1cc(=O)c2cc(Br)ccc2n1CC(=O)NCc1ccccc1`, the “area under cytotoxicity dose-response curve” value in assay [1] came to 41.6. In addition, in assay [2], the “area under intracellular growth-inhibition dose-response curve” value is 233.
For `BrC(=C\c1ccccc1)/C=N/n1cnnc1` the same measures were 97.5 and 5.21.
On the same counts, the results for `O=C(OCC(=O)c1ccc(Cl)s1)c1cncc(Br)c1` are 95.6 and 0.884.
On the same counts, the results for `O=C(NCCc1ccccc1)c1ccc(Br)o1` are 46.2 and 193.
Turning to `CN1CCN2c3ccccc3Cc3ccccc3C2C1.Cl` (stereo unspecified), the “area under cytotoxicity dose-response curve” value in assay [1] is below 0. For the same molecule, in assay [2], the “area under intracellular growth-inhibition dose-response curve” value is 118.
Consider `N=C(NCCCCCCNC(=N)NC(=N)Nc1ccc(Cl)cc1)NC(=N)Nc1ccc(Cl)cc1`, for which the “area under cytotoxicity dose-response curve” value in assay [1] turned out to be 165. Also, the “area under intracellular growth-inhibition dose-response curve” value in assay [2] amounted to 89.5.
On the same counts, the results for `Cc1oc(-c2cccs2)nc1CSCC(=O)N1CCC2(CC1)OCCO2` are 37.4 and 48.9.
For `O=C(c1ccc([N+](=O)[O-])o1)N1CCN(c2nc3ccc(F)cc3s2)CC1` the same measures were 12.7 and 22.9.
On the same counts, the results for `COc1ccc(C(=O)COC(=O)CNC(=O)c2ccc(C)s2)c(OC)c1` are below 0 and 29.9.
`O=C(/C=C\c1cccs1)N1CCN(Cc2ccc3c(c2)OCO3)CC1`: the “area under cytotoxicity dose-response curve” value in assay [1] is 135. In addition, the “area under intracellular growth-inhibition dose-response curve” value in assay [2] was 218.
For `COc1ccc(CCNC(=O)c2cc([N+](=O)[O-])cc([N+](=O)[O-])c2)cc1OC` the same measures were below 0 and 243.
On the same counts, the results for `CCCCC(=O)NCc1ccc(Cl)cc1` are 27.4 and 197.
